We go through twelve molecules from patent EP0465913B1, “Diaminotrifluoromethylpyrimidine derivatives, process for their production and phospholipase A2 inhibitor containing them” (ISHIHARA SANGYO KAISHA, LTD., priority 1990, dated 1992).

“And” between values parts separate entries of the source, which are not always exact repeats. Equal entries are not always repeated. Where two headings read alike, the source gives them in different places. Where only a bound is given, the exact number is not on record here.

In series [1] the test system is increased vascular permeability induced by acetic acid. Description: Inhibitory activity on increased vascular permeability induced by acetic acid (Rat Whittle method, method D). The series is classed as in vivo, SD (Crj: CD) male rats. To be noted: amount of leaked dye. The method, then:
Using SD (Crj: CD) male rats, each test group consisted of from 3 to 5 rats. A test compound was mixed with Tween 80 [polyoxyethylenesorbitan monooleate (manufactured by Nacalai Tesque K.K.)], and distilled water was added thereto to obtain a 2% Tween 80 suspension, or it was dissolved in the form of a salt in water to obtain an aqueous solution. A test compound was orally administered, and one hour later, 0.7% acetic acid was intraperitonially injected to each rat in an amount of 0.05 ml/10 g, and at the same time, 2% brilliant blue was intravenously injected into the tail vein in an amount of 0.05 ml/20 g. Thirty minutes after the injection of brilliant blue, the cervical vertebrae were dislocated under anesthesia by chloroform, and the abdorminal cavity was washed with 10 ml of a physiological saline. The washing solution was subjected to centrifugal separation at 3,000 rpm for 10 minutes, and the amount of the dye in the supernatant was measured at 600 nm absorbance by Microplate ELISA Reader (Model 2550EIA Reader, manufactured by Bio-Rad Laboratories). The inhibition rate of the amount of leaked dye in the group to which a test compound was administered relative to the control group was obtained from the following formula, and the results are shown in Table 9. Inhibition rate (%) = (l -(C)/(D)) x 100 [formula] • C: Amount of leaked dye in the group to which a test compound was administered. • D: Amount of leaked dye in the control group.

Series [2] deals with T1, Porcine pancreatic phospholipase A2 (Sus scrofa, UniProt P00592).
T1 construct: purchased Boehringer Mannheim·Yamanouchi K.K. 161454·122416
T1 sequence (P00592 23-146): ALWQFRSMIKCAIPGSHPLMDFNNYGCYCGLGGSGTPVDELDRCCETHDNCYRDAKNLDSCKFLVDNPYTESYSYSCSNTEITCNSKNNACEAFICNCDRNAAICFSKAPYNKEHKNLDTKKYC
In words: Phospholipase A2 inhibitory activity, method B (L-α-dipalmitoylphosphatidylcholine substrate). To be noted: 1,000 ppm, 37°C for 30 minutes, read-out: % inhibition of PLA2 (1,000 ppm). The series is classed as biochemical. Summed up:
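Substrate: L-α-dipalmitoylphosphatidylcholine/sodium cholate mixed micelles in 250 mM NaCl, 100 mM Tris-HCl pH 8.0. Enzyme (10 µg/ml stock) incubated with compound in buffer containing CaCl2 and BSA, 30 min at 37 °C. Released free fatty acid measured by ACS-ACOD at 540 nm; % inhibition derived from apparent enzyme concentration read off a standard curve.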

Series [3] has as its system carrageenin edema. Description: Inhibitory activity on carrageenin edema. As to conditions: rat, paw swelling volume three hours after carrageenin; for inhibition in vivo at 100 mg/kg: dose 100 mg/kg orally; for Inhibition rate (%): dose 50 mg/kg orally. The series is classed as in vivo, Wistar male rats. Summed up: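 Male Wistar rats (about 100 g, 5 per group) dosed orally at 200, 100, 50 or 25 mg/kg as 2% Tween 80 suspension or aqueous salt solution, 1 h before subplantar injection of 0.1 ml 1% λ-carrageenin. Paw swelling measured at 3 h; % inhibition versus control group mean swelling.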

Series [4] has as its system experimental acute pancreatitis model. In words: Effects against acute pancreatitis (Test Example 8, closed duodenal loop method, lesion scores). The series is classed as in vivo, Crj-CD male rats. As to conditions: sodium salt, 6 hours after ventrotomy; for inhibition in vivo at 10 mg/kg: Rattus norvegicus, 10 mg/kg single intravenous injection. A digest of the protocol: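 Closed duodenal loop pancreatitis in male Crj-CD rats (n=3) under halothane/nitrous oxide; sodium-salt compounds given i.v. into tail vein by continuous infusion or bolus, controls untreated. At 6 h, four pancreatic lesions scored 0-3; inhibition % of total and hemorrhagic scores calculated versus control.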

In series [5] the test system is increased vascular permeability induced by acetic acid. In words: Inhibitory activity on increased vascular permeability induced by acetic acid (Mouse Whittle method, method C). The series is classed as in vivo, ddy male mice. As to conditions: amount of leaked dye. On the procedure:
Using ddy male mice, each test group consisted of 4 or 5 mice. A test compound was mixed with Tween 80 [polyoxyethylenesorbitan monooleate (manufactured by Nacalai Tesque K.K.)], and distilled water was added thereto to obtain a 2% Tween 80 suspension, or it was dissolved in the form of a salt in water to obtain an aqueous solution. A test compound was orally administered, and upon expiration of one hour from the administration, 0.7% acetic acid was intraperitonially injected to each mouse in an amount of 0.1 ml/10 g, and at the same time, 2% brilliant blue was intravenously injected into the tail vein in an amount of 0.1 ml/20 g. Thirty minutes after the injection of brilliant blue, the cervical vertebrae were dislocated under anesthesia by chloroform, and the abdorminal cavity was washed with 5 ml of a physiological saline. The washing solution was subjected to centrifugal separation at 3,000 rpm for 10 minutes, and the amount of the dye in the supernatant was measured at 600 nm absorbance by Microplate ELISA Reader (Model 2550EIA Reader, manufactured by Bio-Rad Laboratories). The inhibition rate of the amount of leaked dye in the group in which a test compound was administered relative to the control group was obtained by the following formula. Inhibition rate (%) = (l -(C)/(D)) x 100 [formula] • C: Amount of leaked dye in the group to which a test compound was administered. • D: Amount of leaked dye in the control group.

For series [6], the target named is T1, Porcine pancreatic phospholipase A2. In words: Phospholipase A2 inhibitory activity, method A (egg yolk lecithin substrate). The series is classed as biochemical. As to conditions: 1,000 ppm, 37°C for 30 minutes, read-out: % inhibition of PLA2 (1,000 ppm). A digest of the protocol:
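Egg yolk lecithin dispersed with glycerine, Triton X-100 and CaCl2 in 50 mM Tris-HCl pH7.5 was hydrolysed by enzyme (20 ng/ml solution) with compound, 37°C, 30 min. Released free fatty acid measured by ACS-ACOD method at 540 nm; apparent enzyme level read from a standard curve to give percent inhibition.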

Series [7] in a line: Acute toxicity, intravenous injection (LD50). The series is classed as in vivo. As to conditions: mouse, in vivo, ddy male mice, sodium salt, mortality over one week. On the procedure: Administration route: Intravenous injection
Using ddy male mice (body weight: 25 - 30 g), each test group consisted of 5 mice. A test compound was dissolved in the form of a sodium salt in a physiological saline or in a 5% glucose aqueous solution, and intravenously injected in an amount of 0.1 ml/10 g body weight. After the injection, the mortality rate was obtained over one week, and the median lethal dose LD50 (mg/kg) was determined.

Series [8] relates to experimental acute pancreatitis model. Description: Effects against acute pancreatitis (Test Example 7, closed duodenal loop method, gross pathological examination). The series is classed as in vivo, Crj-CD male rats. Also noted: key: -: No significant lesions; ±: Minimal; +: Light; ++: Moderate; +++: Marked. As to conditions: 50 mg per kg continuous intravenous injection, examination 6 hours after ventrotomy, individual rats. On the procedure:
(§1) Using Crj-CD male rats (for Compound No. 19, rats having a body weight of from 371 to 484 g were used, and for Compound No. 10, rats having a body weight of from 444 to 574 g were used), each test group consisted of 3 rats. An experimental acute pancreatitis model was prepared by a closed duodenal loop method under anesthesia with halothane (manufactured by Hoechst Japan) and nitrous oxide (manufactured by Sumitomo Seika K.K.) applied by means of a general inhalation anesthesia machine (Model EM-2 and halothane evaporator F-Model). Then, Compound No. 19 or Compound No. 10 was continuously intravenously injected into the tail vein in an amount of 50 mg per kg or 40 mg per kg, respectively, at a rate of 0.05 ml per minute by means of a pump (Technicon AA II Proportioning Pump III, manufactured by Technicon Instruments Corporation). No injection was made to a control group. Gross pathological examination was conducted upon expiration of 6 hours after the ventrotomy in the case of the test group to which Compound No. 19 was administered, or upon expiration of 3 hours after the ventrotomy in the case of the test group to which Compound No. 10 was administered. As a result, as shown in the following Table 12, the groups to which the compounds of the present invention were administered, show distinct usefulness for treating acute pancreatitis.

Series [9] has the same test system. The description is as above. The series is classed as in vivo, Crj-CD male rats. More on the design: key to Pancreatic edema Distribution: -: No significant lesions; ± ∼ +++: Focal-diffuse; ± ∼ +++: Focal-diffuse; ± ∼ +++: Focal-diffuse; ± ∼ +++: Focal-diffuse; key to Pancreatic hemorrhage Petechia Grade / Pancreatic edema Grade: -: No significant lesions; ±: Minimal; +: Light; ++: Moderate; +++: Marked. To be noted: 50 mg per kg continuous intravenous injection, examination 6 hours after ventrotomy, individual rats. On the procedure:
as §1

Where [10] appears, read: read-out: Inhibition rate of hemorrhagic lesions (%).
Where [11] appears, read: read-out: Inhibition rate of pancreatitis lesions (%).
Where [12] appears, read: po, 3 h, read-out: Inhibition rate (%).

`CS(=O)(=O)Nc1ncc(C(F)(F)F)cc1NC(=O)OC1CCCCC1` [compound 121]: in series [1] (dose 12.5 mg/kg orally), the “Inhibition rate (%)” value was 31%. For the same molecule, in [2], the inhibition (in general, the drop in the measured response relative to a control, in per cent) at 1000 ppm stood at 90%.

Turning to `CS(=O)(=O)Nc1ncc(C(F)(F)F)cc1NC(=O)C=Cc1cccs1` [compound 72], the “Inhibition rate (%)” value in series [1] (dose 25 mg/kg orally) amounted to 66%. For the same molecule, the inhibition in vivo at 25 mg/kg in [3] (po, 3 h, dose 25 mg/kg orally, read-out: Inhibition rate (%)) was 21%. The inhibition in vivo at 10 mg/kg worked out at 62% in series [4] (setting [10]) and 32% in series [4] (setting [11]). For the same molecule, in series [2], the inhibition at 1000 ppm turned out to be 73%.

In the case of `CCCCCC(=O)Nc1cc(C(F)(F)F)cnc1NS(C)(=O)=O` [Compound No. 3], the inhibition in vivo at 100 mg/kg in series [3] (setting [12]) stood at 20%. Also, the inhibition in vivo at 10 mg/kg came out at 49% in series [4] (setting [10]) and 51% in series [4] (setting [11]). Also, the “Inhibition rate (%)” value in [5] (dose 50 mg/kg orally) amounted to 58%. Moreover, in [6], the inhibition at 1000 ppm is 67%. In series [7] (iv), the LD50 (in general, the dose at which mortality reaches 50%) at 168 h is more than 100 mg/kg.

As to `CCS(=O)(=O)Nc1ncc(C(F)(F)F)cc1NC(=O)c1ccco1` [compound 101], the “Inhibition rate (%)” value in series [1] (dose 50 mg/kg orally) turned out to be 41%; in [3] it was 24%; in [5] (dose 20 mg/kg orally) it was 46%.

Take `CS(=O)(=O)Nc1ncc(C(F)(F)F)cc1NC(=O)c1ccncc1` [compound 82]: the “Inhibition rate (%)” value in series [1] (dose 25 mg/kg orally) came to 38%; in series [3], 19%. The inhibition at 1000 ppm in [2] is 38%.

As for `CCS(=O)(=O)Nc1ncc(C(F)(F)F)cc1NC(=O)C(F)(F)C(F)(F)F` [Compound No. 19, N-(2-ethylsulfonylamino-5-trifluoromethyl-3-pyridyl)pentafluoropropionamide], the “Pancreatic hemorrhage Petechia Distribution” value in [8] is “-”. Moreover, in series [9], the “Pancreatic edema Distribution” value is “+ (2×) and ††”; the “Pancreatic edema Grade” value is “+ (2×) and ††”; the “Pancreatic hemorrhage Petechia Grade” value was “-”. The inhibition in vivo at 100 mg/kg in series [3] (setting [12]) came out at 31%. In series [2], the inhibition at 1000 ppm came out at 75%. In addition, in series [6], the inhibition at 1000 ppm was more than 90%. Further, the LD50 at 168 h in series [7] (iv) is 50 to 100 mg/kg.

As to `CS(=O)(=O)Nc1ncc(C(F)(F)F)cc1NC(=O)C(F)(F)Cl` [compound 11], the inhibition in vivo at 100 mg/kg in series [3] (setting [12]) came out at 24%. In series [4] (23 mg/kg continuous intravenous injection), the “Inhibition rate of hemorrhagic lesions (%)” value is reported as 52%. Moreover, the “Inhibition rate (%)” value in series [5] (dose 100 mg/kg orally) is recorded as 49%. Also, in series [6], the inhibition at 1000 ppm is 52%. Further, the 50% lethal dose (LD50) at 168 h in [7] (iv) was more than 150 mg/kg.

`CS(=O)(=O)Nc1ncc(C(F)(F)F)cc1NC(=O)c1cccc(C(F)(F)F)c1` [compound 80]: the “Inhibition rate (%)” value in series [1] (dose 25 mg/kg orally) is reported as 33%; in series [3] it was 29%. Besides, the results for the inhibition in vivo at 10 mg/kg in [4] (setting [10]) and in [4] (setting [11]) were 11% and 8%, respectively. Moreover, in [2], the inhibition at 1000 ppm was found to be 73%. Further, in [7] (iv), the LD50 at 168 h is more than 80 mg/kg.

Turning to `CS(=O)(=O)Nc1ncc(C(F)(F)F)cc1NC(=O)c1cccs1` [compound 120], the “Inhibition rate (%)” value in series [1] (dose 50 mg/kg orally) was found to be 35%; in [3], 27%; in series [5] (dose 20 mg/kg orally), 43%. Further, the “Inhibition rate of hemorrhagic lesions (%)” value in [4] (24 mg/kg continuous intravenous injection) was 100%. Also, in series [7] (iv), the LD50 at 168 h came to 83 mg/kg.

In the case of `CCS(=O)(=O)Nc1ncc(C(F)(F)F)cc1NC(=O)c1cccc(F)c1` [compound 98], the entries for the “Inhibition rate (%)” value in series [1] (dose 50 mg/kg orally) and in series [3] were 32% and 45%, respectively. Also, the inhibition at 1000 ppm in [2] stood at 65%.

Take `CCCOC(=O)Nc1cc(C(F)(F)F)cnc1NS(C)(=O)=O` [compound 16]: the inhibition in vivo at 100 mg/kg in [3] (setting [12]) amounted to 24%. In addition, the “Inhibition rate of hemorrhagic lesions (%)” value in series [4] (20 mg/kg continuous intravenous injection) amounted to 52%. For the same molecule, the “Inhibition rate (%)” value in [5] (dose 20 mg/kg orally) was found to be 55%. The inhibition at 1000 ppm in series [6] is 43%. In addition, in [7], the LD50 at 168 h is more than 100 mg/kg.

For the molecule `CN(C)S(=O)(=O)Nc1ncc(C(F)(F)F)cc1NC(=O)c1cccc(F)c1` [compound 113], the “Inhibition rate (%)” value in series [1] (dose 50 mg/kg orally) is 67%; in [3], 26%. The inhibition in vivo at 10 mg/kg in series [4] (setting [10]) came out at 41%; in series [4] (setting [11]) it was 36%. The inhibition at 1000 ppm in series [2] worked out at 35%.
